From US20260008048A1, “POLYSILOXANE-BASED DEVICES WITH REDUCED DRUG ABSORPTION CHARACTERISTICS” (THE JOHNS HOPKINS UNIVERSITY, priority 2022, published 2026)
In brackets after ≈: the same amount, converted by molar mass. Entries after “also recorded” stand apart in the source; their conditions may differ.

Key:
[1] = cited from earlier work
[2] = Drug absorption after drug pretreatment of PDMS / PDMS-PEG samples; format: physicochemical; conditions: 1 week pretreatment, 100 μM
[3] = cited from earlier work; remark: listed apart in the source
[4] = 1-week drug absorption by PDMS / PDMS-PEG block copolymer plugs (UV-Vis); format: physicochemical; conditions: 100 μM drug, 37° C.; for 1-week drug absorption with block copolymer versus PDMS: 1% and 2% BCP; for reduction of drug absorption by PDMS-PEG block copolymer additives: compared to PDMS
Method: Plug size was chosen to be similar to many microfluidic devices. After 1 week, the drug concentration was measured using UV-Vis spectroscopy, the area under the curve (AUC) was calculated, and each value was compared to drug standards to determine the percent drug loss (FIG. 2A).
PDMS-PEG Fabrication: PDMS was prepared as previously described in Scott, L. E., Mair, D. B., Narang, J. D., Feleke, K. & Lemmon, C. A. Fibronectin fibrillogenesis facilitates mechano-dependent cell spreading, force generation, and nuclear size in human embryonic fibroblasts. […] PDMS base was mixed with PDMS crosslinker at a […] for 5 minutes and was then degassed in a desiccator for 30 minutes. […] 8 mm plugs were taken using a biopsy punch and used in downstream experiments. This height/diameter was chosen to provide a surface to volume ratio of ˜0.2/mm, similar to that found in microfluidic devices.
Drug absorption experimental setup: Samples were added to glass vials. A 1.5 mL volume of 100 μM pharmaceutical solution was added, and the samples were fully submerged in the solution. […] Experimental samples were compared to controls, in which drug was incubated for one week without a PDMS sample. The mean of the controls was taken as the total drug concentration without absorption, and the percent drug loss was calculated as
UV-Vis: Following experimental absorption, 2 μL samples were measured (Nanodrop 2000, ThermoFisher Scientific). Measurements were taken in triplicate for each sample to decrease noise. […] The area under the curve was used to calculate the precent drug loss, compared to the AUC of the drug standards. Sample size equals three, with three independent measurements per sample.

[5] = Drug absorption after drug pretreatment of PDMS / PDMS-PEG samples; format: physicochemical; conditions: 24 hour pretreatment
Method: We pretreated with 200 μM and 1 mM concentrations and 1 week of absorption was measured (FIG. 4A). […] For these experiments, we utilized a 24 hour pretreatment step.
Drug Pretreatment: PDMS, 1% block copolymer, and 2% block copolymer samples were prepared as mentioned above. […] Pretreated samples were then transferred to a fresh 100 μM drug solution for one week of absorption, and absorption was assessed as described.

[6] = system: engineered heart tissue (EHT); test: Engineered heart tissue (Mantarray) twitch force dose response
Description: We utilized the commercially available Mantarray (Curi Bio) engineered heart tissue (EHT) platform to perform these screens. In this platform, the EHT self assembles between two posts, one soft and bendable, and the other stiff and immovable (FIG. 6B). The soft post has an embedded magnet, and deflection of the post due to EHT contraction results in changes in magnetic flux. The tissues can be placed over magnetic sensor arrays in the Mantarray system to measure this change in flux and calculate the twitch forces and kinetics.
After drug was allowed to absorb for 1 week, dose response curves were measured for each condition. […]
Engineered Heart Tissue Fabrication: The Mantarray (Curi Bio) is a system designed for reproducible fabrication and functional measurements of EHTs in a 24-well plate format. […] Cardiomyocytes and HS27A stromal cells (ATCC) were lifted using 0.05% trypsin+EDTA, counted, and resuspended at 8.3 million cells/mL and 2.5 million cells/mL, respectively. […]
EHT Dosing and Contractile Measurements: EHTs were fabricated as described above and paced to measure average force output. […] EHTs were paced at 5.0 V 1 Hz with a pulse duration of 10 milliseconds and average force output readings were recorded using a Mantarray for 60 seconds to give an initial mean force average. […] Percent reduction in twitch force following exposure to drug was then calculated using the equation

[7] = 200 μM and 1 mM, PDMS, 1% and 2% BCP overall

Compound | Solubility in H2O [1] [mg/mL] | effect of pretreating with experimental dosages for 1 week on drug absorption ([2]; PDMS only) | logP [3] | 1-week drug absorption with block copolymer versus PDMS [4] | effect of pretreating with higher dosages on drug absorption [5, 7] | effect of pretreating with higher dosages on drug absorption ([5]; 1 mM, 2% BCP) | effect of pretreating with higher dosages on drug absorption ([5]; increasing dosage, 1% BCP) | effect of pretreating with higher dosages on drug absorption ([5]; increasing dosage, PDMS) | effect of pretreating with experimental dosages for 1 week on drug absorption ([2]; PDMS and PDMS-PEG BCP samples) | reduction of drug absorption by PDMS-PEG block copolymer additives [4] [%] | effect of pretreating with higher dosages on drug absorption ([5]; 200 μM, 2% BCP) | effect of pretreating with higher dosages on drug absorption ([5]; 1 mM, PDMS) | IC50 of drug incubated with APC compared to control ([6]; drug incubated 1 week at 37° C. with APC (2% block copolymer-1 mM)) | IC50 of drug incubated with PDMS compared to control and APC ([6]; drug incubated 1 week at 37° C. with PDMS)
CC(C)COCC(CN(Cc1ccccc1)c1ccccc1)N1CCCC1 (stereo not shown) [Bepridil] | 0.05655 (≈ 154 µM) | significantly decreases bepridil absorption | 5.2 | no significant improvement | significant reductions | significantly decreases absorption | a decrease, followed by an increase in drug absorption; also recorded: increased | a decrease, followed by an increase in drug absorption; also recorded: increased |  |  |  |  |  | 
CC(C)(C)c1ccc(C(O)CCCN2CCC(C(O)(c3ccccc3)c3ccccc3)CC2)cc1 (stereo not shown) [Terfenadine] | 0.0963 (≈ 204 µM) |  | 6.6 | significantly reduced | further decrease terfenadine absorption; also recorded: significant reductions |  |  |  | significantly decreases terfenadine absorption | 61.8 |  |  |  | 
COCCc1ccc(OCC(O)CNC(C)C)cc1 (stereo not shown) [Metoprolol Succinate] | 1000 |  |  | significantly reduced | significant reductions |  | no significant change in absorption | biphasic drug absorption pattern | no significant effect | 97.2 | significant increase in absorption; also recorded: increased | increased |  | 
COc1ccc(CCN(C)CCCC(C#N)(c2ccc(OC)c(OC)c2)C(C)C)cc1OC (stereo not shown) [Verapamil] |  |  |  |  |  |  |  |  |  |  |  |  | not significantly different from control | significantly reduce the IC50 value
